# From patent US20240130368A1, “HERBICIDAL COMPOSITION” (Nippon Soda Co., Ltd., priority 2021, published 2024)
# Read-outs that look alike come from different tables or passages of the source.
# Columns and labels:
# Assay type in all cases: in vivo
# Abutilon theophrasti = assay: Test Example 3: seeds on filter paper moistened with chemical solution, herbicidal effect visually evaluated; details: 6 days after the treatment
# Protocol: (§1) The compound (I) or compound (II) was prepared into a 5% emulsion using DMF (containing 1.5% Tween) and diluted with water to a prescribed dosage concentration. Commercially available preparations were dissolved in water and adjusted to a prescribed dosage concentration.
# (§2) Seeds were soaked in 0.6% sodium hypochlorite for a predetermined time for surface sterilization and washed with water for use (seed disinfection). Seeds of Ambrosia artemisiifolia were used for the test.
# (§3) Filter paper was placed on a cup (diameter: 10 cm, height: 4 cm) with a lid and moistened with 8 ml of chemical solution, and seeds were sown thereon, and after covering with a lid, grown in a constant temperature room.
# (§4) The herbicidal effects were visually evaluated, 6 days after the treatment, as the herbicidal effect (%), by comparing with a state of an untreated group using a total of 21 scores of withering index from 0 to 20 (0: mortality rate equivalent to that of the untreated group, 20: mortality rate of 100%).
# (§5) In addition, the expected values of the herbicidal effects were calculated from the herbicidal effects in a case where the compound (I) alone was applied and the herbicidal effects in a case where the compound (II) alone was applied by using the Colby's formula (Colby, S. R., Calculating synergistic and antagonistic responses of herbicide combinations, Weeds, 15, pp. 20-22 (1967)).
# (§6) M indicates an herbicidal effect (%) in the application of the compound (I) alone, N indicates an herbicidal effect (%) in the application of the compound (II) alone, and E indicates an expected value (%) of the herbicidal effect in the combined application of the compound (T) and the compound (TT). When the actual measured value (%) of the herbicidal effect in the combined application of the compound (I) and the compound (II) is greater than the expected value E, it can be regarded that the combined application of the compound (I) and the compound (II) has a synergistic effect.
# The herbicidal effects were evaluated by the same method as in Test Example 1 except that the seeds used in the test were changed from Ambrosia artemisiifolia to Abutilon theophrasti.
# Zea mays [1] = assay: Test Example 6: foliar spraying treatment, herbicidal effect from above ground weight (useful plant)
# Protocol: (§7) POA allylphenyl ether (4.1 parts by weight), POE-POP glycol (1 part by weight), POE sorbitan laurate (0.8 parts by weight), glycerin (2.6 parts by weight), dimethylformamide (65.9 parts by weight), N-methylpyrrolidone (5.1 parts by weight), cyclohexanone (15.4 parts by weight), and aromatic hydrocarbons (5.1 parts by weight) were mixed and dissolved to prepare an emulsion. The active ingredient (4 mg) of the composition of the present invention was dissolved in this emulsion (100 μL) to prepare a test emulsion. It should be noted that POA means “polyoxyalkylene”, POE means “polyoxyethylene”, and POP means “polyoxypropylene”.
# (§8) A test emulsion was prepared in the same manner as in Test Example 4.
# (§9) A 300 cm^2 pot was filled with soil, and seeds of Zea mays and Ipomoea hederacea were sown into the surface layer, and then grown in a greenhouse after being covered lightly with soil. When each plant grew to a plant height of 7 to 9 cm, the above test emulsion was diluted so that the amount of the active ingredient became a predetermined amount, and sprayed on the foliage with a small sprayer at a spray water volume of 250 L per hectare.
# (§10) Test Examples 6-1 and 6-3 were evaluated in the same manner as in Test Example 4.
# (§11) The expected values of the herbicidal effects in Test Example 6-2 were calculated using the following Colby's formula (Colby, S. R., Calculating synergistic and antagonistic responses of herbicide combinations, Weeds, 15, pp. 20-22 (1967)).
# (§12) X indicates an herbicidal effect (%) by applying the compound (1) alone, Y and Z each indicate an herbicidal effect (%) by applying one of the two types of the compounds (II) alone, and E indicates an expected value (%) of the herbicidal effect by applying combinations of the compound (I) and two types of the compounds (II).
# (§13) When the actual measured value (%) of the herbicidal effect by the combined application of the compound (I) and two types of the compounds (11) is greater than the expected value E, it can be regarded that the combined application of the compound (1) and two types of the compounds (II) has a synergistic effect.
# The following plants were used as useful plants [scientific names]. • Corn for animal feed [Zea mays]
# Zea mays [2] = assay: Test Example 4: foliar spraying treatment, herbicidal effect from above ground weight (useful plant); details: 3 weeks after spraying
# Protocol: as §7
# (§14) A 300 cm^2 pot was filled with soil, and seeds of Zea mays, Setaria faberi, Sorghum halepense, Brachiaria platyphylla, Amaranthus palmeri, Senna obtusifolia and Ipomoea hederacea were sown into the surface layer, and then grown in a greenhouse after being covered lightly with soil. When each plant grew to a plant height of 7 to 11 cm, it was used for the test. The test emulsion was diluted so that the amount of the active ingredient became a predetermined amount, and sprayed on the foliage with a small sprayer at a spray water volume of 250 L per hectare.
# (§15) For the evaluation of the herbicidal effects, the above ground weights of weeds in the untreated and treated areas were measured for each weed 3 weeks after spraying treatment, and the herbicidal effect (%) was calculated by the following calculation formula.
# In addition, the expected values of the herbicidal effects were calculated from the herbicidal effects in a case where the compound (I) alone was applied and the herbicidal effects in a case where the compound (II) alone was applied by using the Colby's formula (Colby, S. R., Calculating synergistic and antagonistic responses of herbicide combinations, Weeds, 15, pp. 20-22 (1967)). […]
# Ambrosia artemisiifolia = assay: Test Example 1: seeds on filter paper moistened with chemical solution, herbicidal effect visually evaluated; details: visually evaluated 6 days after treatment; for pest or weed control at 0.2 ppm: amount of active ingredient 0.2 ppm; for pest or weed control at 200 ppm: amount of active ingredient 200 ppm
# Protocol: As the compound (1), 1-methoxy-3-methyl-6-(1,1-dioxido-8-(trifluoromethyl)thiochroman-5-yl)-7-oxa-3,4-diazabicyclo[4.1.0]hept-4-en-2-one (Compound (I-3)) was used.
# as §1, §2, §3, §4, §5, §6
# Ipomoea hederacea [3] = assay: Test Example 6: foliar spraying treatment, herbicidal effect from above ground weight
# Protocol: as §7, §8, §9, §10, §11, §12, §13
# The following grass species were used as grass species to be controlled [scientific names]. • Morning glory [Ipomoea hederacea]
# Ipomoea hederacea [4] = assay: Test Example 4: foliar spraying treatment, herbicidal effect from above ground weight; details: 3 weeks after spraying
# Protocol: as §7, §14, §15, §5
# (§16) M indicates an herbicidal effect (%) in the application of the compound (1) alone, N indicates an herbicidal effect (%) in the application of the compound (II) alone, and E indicates an expected value (%) of the herbicidal effect in the combined application of the compound (I) and the compound (II). When the actual measured value (%) of the herbicidal effect in the combined application of the compound (I) and the compound (II) is greater than the expected value E, it can be regarded that the combined application of the compound (1) and the compound (II) has a synergistic effect.
# (§17) Herbicidal effect (%)=[(above ground weight of weeds in untreated area)−(above ground weight of weeds in treated area)/(above ground weight of weeds in untreated area)]×100
# (§18) The following grass species were used as grass species to be controlled [scientific names]. • Giant foxtail [Setaria faberi] • Johnson grass [Sorghum halepense] • Broadleaf signalgrass [Brachiaria platyphylla] • Palmer amaranth [Amaranthus palmeri] • Sicklepod [Senna obtusifolia] • Morning glory [Ipomoea hederacea]
# Setaria faberi = assay: as above; details: 3 weeks after spraying
# Protocol: as §7, §14, §15, §5, §16, §17, §18
# Amaranthus palmeri = assay: as above; details: 3 weeks after spraying
# Protocol: as §7, §14, §15, §5, §16, §17, §18
# Senna obtusifolia = assay: as above; details: 3 weeks after spraying
# Protocol: as §7, §14, §15, §5, §16, §17, §18
# Brachiaria platyphylla = assay: as above; details: 3 weeks after spraying
# Protocol: as §7, §14, §15, §5, §16, §17, §18
# Sorghum halepense = assay: as above; details: 3 weeks after spraying
# Protocol: as §7, §14, §15, §5, §16, §17, §18
# Avena fatua = assay: Test Example 5: spraying on the soil surface, herbicidal effect from above ground weight; details: Flufenacet alone, 250 gai/ha, sprayed on the soil surface, seven weeks after spraying
# Protocol: as §7, §15, §17, §8
# (§19) A 300 cm^2 pot was filled with soil, and seeds of Triticum aestivum, multidrug-resistant Alopecurus myosuroides, Lolium multiflorum and Avena fatua were sown into the surface layer, and covered with soil to a thickness of 0.5 to 1 cm. The above test emulsion was diluted so that the amount of the active ingredient became a predetermined amount, and sprayed on the soil surface at a spray water volume of 250 L per hectare, followed by growth in an outdoor environment.
# (§20) Seven weeks after spraying, the evaluation was carried out in the same manner as in Test Example 4, except that the above ground weights of weeds in the untreated and treated areas were measured for each weed.
# (§21) The following grass species were used as grass species to be controlled [scientific names]. • Blackgrass * [Alopecurus myosuroides] • Italian ryegrass [Lolium multiflorum] • Wild oat [Avena fatua]
# [5] = system: multidrug-resistant Alopecurus myosuroides; assay: as above; details: Flufenacet alone, 250 gai/ha; sprayed on the soil surface; seven weeks after spraying; Alopecurus myosuroides multidrug-resistant strain
# Protocol: as §7, §15, §17, §8, §19, §20, §21
# Lolium multiflorum = assay: as above; details: Flufenacet alone, 250 gai/ha, sprayed on the soil surface, seven weeks after spraying
# Protocol: as §7, §15, §17, §8, §19, §20, §21
# Triticum aestivum = assay: Test Example 5: spraying on the soil surface, herbicidal effect from above ground weight (useful plant); details: Flufenacet alone, 250 gai/ha, sprayed on the soil surface, seven weeks after spraying
# Protocol: as §7, §15, §17, §8, §19, §20
# The following plants were used as useful plants [scientific names]. • Wheat [Triticum aestivum]
# Digitaria ciliaris = assay: Test Example 2: seeds on filter paper moistened with chemical solution, herbicidal effect visually evaluated; details: Pinoxaden alone, 0.2 ppm, 6 days after the treatment
# [6] = Ambrosia artemisiifolia, 144 h, applied alone, amount of active ingredient 0.8 ppm, read-out: Herbicidal effect (%)
# [7] = Ambrosia artemisiifolia, 144 h, applied alone
compound,measurement,setting,value
"COc1nn(C(=O)[N-]S(=O)(=O)c2ccccc2OC(F)(F)F)c(=O)n1C.[Na+] [Flucarbazone-Sodium, reference compound]",Herbicidal effect,"Abutilon theophrasti; Flucarbazone-Sodium alone, 3.1 ppm",20%
CCOCN(C(=O)CCl)c1c(C)cccc1CC [Acetochlor],Actual measured value of herbicidal effect,"Zea mays [1]; Acetochlor alone, 2,000 gai/ha",0%
same,Actual measured value of herbicidal effect,"Zea mays [2]; Acetochlor alone, 1,000 gai/ha",0%
same,pest or weed control at 0.8 ppm,Ambrosia artemisiifolia; [6],40%
same,Actual measured value of herbicidal effect,"Ipomoea hederacea [3]; Acetochlor alone, 2,000 gai/ha",20%
same,Actual measured value of herbicidal effect,"Ipomoea hederacea [4]; Acetochlor alone, 1,000 gai/ha",20%
same,Actual measured value of herbicidal effect,"Setaria faberi; Acetochlor alone, 1,000 gai/ha",70%
same,Actual measured value of herbicidal effect,"Amaranthus palmeri; Acetochlor alone, 1,000 gai/ha",50%
same,Actual measured value of herbicidal effect,"Senna obtusifolia; Acetochlor alone, 1,000 gai/ha",20%
same,Actual measured value of herbicidal effect,"Brachiaria platyphylla; Acetochlor alone, 1,000 gai/ha",60%
same,Actual measured value of herbicidal effect,"Sorghum halepense; Acetochlor alone, 1,000 gai/ha",60%
Cn1nc(C(F)(F)F)c(CS(=O)(=O)C2=NOC(C)(C)C2)c1OC(F)F [Pyroxasulfone],Actual measured value of herbicidal effect,"Zea mays [1]; Pyroxasulfone alone, 94 gai/ha",0%
same,pest or weed control at 0.2 ppm,"Ambrosia artemisiifolia; Ambrosia artemisiifolia, 144 h, applied alone, read-out: Herbicidal effect (%)",30%
same,Actual measured value of herbicidal effect,"Ipomoea hederacea [3]; Pyroxasulfone alone, 94 gai/ha",60%
"CC(C)N(C(=O)COc1nnc(C(F)(F)F)s1)c1ccc(F)cc1 [Flufenacet, reference compound]",pest or weed control at 0.2 ppm,"Ambrosia artemisiifolia; Ambrosia artemisiifolia, 144 h, compound applied alone, read-out: Herbicidal effect (%)",20%
same,Actual measured value of herbicidal effect,Avena fatua,60%
same,Actual measured value of herbicidal effect,[5],40%
same,Actual measured value of herbicidal effect,Lolium multiflorum,70%
same,Actual measured value of herbicidal effect,Triticum aestivum,30%
CCNc1nc(Cl)nc(NC(C)C)n1 [Atrazine],Actual measured value of herbicidal effect,"Zea mays [2]; Atrazine alone, 500 gai/ha",0%
same,pest or weed control at 200 ppm,Ambrosia artemisiifolia; [7],10%
same,Actual measured value of herbicidal effect,"Ipomoea hederacea [4]; Atrazine alone, 500 gai/ha",100%
same,Actual measured value of herbicidal effect,"Setaria faberi; Atrazine alone, 500 gai/ha",100%
same,Actual measured value of herbicidal effect,"Amaranthus palmeri; Atrazine alone, 500 gai/ha",100%
same,Actual measured value of herbicidal effect,"Senna obtusifolia; Atrazine alone, 500 gai/ha",30%
same,Actual measured value of herbicidal effect,"Brachiaria platyphylla; Atrazine alone, 500 gai/ha",0%
same,Actual measured value of herbicidal effect,"Sorghum halepense; Atrazine alone, 500 gai/ha",0%
"CCc1cc(C)cc(CC)c1-c1c(OC(=O)C(C)(C)C)n2n(c1=O)CCOCC2 [Pinoxaden, reference compound]",Herbicidal effect,Digitaria ciliaris,10%
O=C(O)c1nc(Cl)ccc1Cl [Clopyralid],Actual measured value of herbicidal effect,"Zea mays [1]; Clopyralid alone, 125 gai/ha",0%
same,pest or weed control at 12.5 ppm,"Ambrosia artemisiifolia; Ambrosia artemisiifolia, 144 h, applied alone, amount of active ingredient 12.5 ppm, read-out: Herbicidal effect (%)",90%
same,Actual measured value of herbicidal effect,"Ipomoea hederacea [3]; Clopyralid alone, 125 gai/ha",30%
Nc1c(Cl)c(Cl)nc(C(=O)O)c1Cl [Picloram],pest or weed control at 0.8 ppm,Ambrosia artemisiifolia; [6],70%
CCNc1nc(Cl)nc(NCC)n1 [Simazine],pest or weed control at 50 ppm,"Ambrosia artemisiifolia; Ambrosia artemisiifolia, 144 h, applied alone, amount of active ingredient 50 ppm, read-out: Herbicidal effect (%)",30%
CCOC(=O)COc1ncccc1Oc1cc(-n2c(=O)cc(C(F)(F)F)n(C)c2=O)c(F)cc1Cl [Epyrifenacil],Herbicidal effect (%),"Ambrosia artemisiifolia; compound applied alone, amount of active ingredient 0.0125 ppm",80%
"COC(=O)c1sccc1S(=O)(=O)NC(=O)Nc1nc(C)nc(OC)n1 [Thifensulfuron-methyl, reference compound]",Herbicidal effect,"Abutilon theophrasti; Thifensulfuron-methyl alone, 0.8 ppm",10%
CC(C)N1C(=O)c2ccccc2NS1(=O)=O [Bentazon],pest or weed control at 200 ppm,Ambrosia artemisiifolia; [7],20%
COC(=O)c1csc(C)c1S(=O)(=O)NC(=O)n1nc(OC)n(C)c1=O [Thiencarbazone-methyl],Herbicidal effect (%),"Ambrosia artemisiifolia; applied alone, amount of active ingredient 0.8 ppm",30%
O=C(O)CNCP(=O)(O)O [Glyphosate],pest or weed control at 12.5 ppm,"Ambrosia artemisiifolia; Ambrosia artemisiifolia, 144 h, read-out: Herbicidal effect (%), applied alone, amount of active ingredient 12.5 ppm",20%
"2,4-D amine",Herbicidal effect (%),"Ambrosia artemisiifolia; applied alone, amount of active ingredient 0.05 ppm",20%
